Experimental findings from patent US6716436B1, “Cosmetic composition for slimming containing L-arginine, an L-arginine analogue, or one of their derivatives, for topical application” (Exsymol S.A.M., priority 1999, dated 2004) are described below.

Like-named read-outs stand apart in the source and are kept apart here.

One data set relates to rats ZUCKER fa/fa. Put plainly: Test in vivo on rats (weight and measurement over 5 weeks). As to conditions: group II ionisation every two days. The source says: Three groups of 4 rats ZUCKER fa/fa defined in an homogeneous way were placed in the animal house at 8 weeks. The experiment begins when the rats have reached 9 weeks and similar weights (240±15 g); they are placed in individual cage with water and food ad libidum. The whole of the rats are circularly hair removed on median part in order to tattoo an axis between the neck and the tail. On a group N^o I, the emulsion described in example 1 is daily applied on the hair-removed part until absorption with removing the excess. […] A third group is used as the control (group C). These experiments are carried out during 5 weeks.

Data set [1] in a line: Comparative study of cutaneous diffusion (diffusion cell). The conditions noted are these: solution at 30 mM, 0.2 ml by cm^2 on hairless rat skin; L-arginine dosed by HPLC in dialysate.
Description: (§1) Hairless rats are sacrified by intra-cardiac injection of pentobarbital; the ventral skin is recollected and hypodermis is removed with a scalpel. 0.2 ml by cm^2 of the solution to be tested are dropped on a piece of skin (dermis and epidermis) which is set on a diffusion cell. The diffusion is tested in comparison with phosphate buffer containing 0.5% of tween 20.
(§2) At different times, the phosphate buffer is replaced and L-arginine is dosed by HPLC in the recollected dialysate fractions.
Data set [2] deals with Segments of perirenal adipose tissue. The experiment in a line: Lipolytic activity in vitro (glycerol liberation). Format: cell-based, male rabbits. As to conditions: rabbit perirenal adipose tissue, 37° C. As for the experimental part: The in vitro lipolytic activity of solutions containing compounds according to the invention is tested (Solutions at 4%).
Segments of perirenal adipose tissue of male rabbits are incubed in a Krebs-Ringer bicarbonate buffer pH 7.4, which contains 5,5 mM glucose, 40 mg/ml of bovin albumin serum. The total volume of incubation is 3 ml with the substance to be tested prepared in 0.01 M of NH4HCO3 and additionned in a volume of 0.1 ml. The preparations are stirred at 37° C., under a 95% O2, 5% CO2 atmosphere.
The lipolytic activity levels are quantified by glycerol liberation in the incubation medium and are expressed by gramme of lipid. The glycerol is dosed in duplicate by enzymatic method: glycerokinase, glycerophosphate deshydrogenase (Boerhinger-Mannheim), method of Wieland (32), modified by Vaughan (33).

For data set [3] the following is noted: hairless, rat, 30 mM.
Description: as §1, §2

Take `N=C(N)NCCC[C@H](N)C(=O)O.O=C(O)c1ccccc1O` [Group II, arginium salicylate]: the Meas amounted to 189.75 mm in the data set on rats ZUCKER fa/fa (Week 1, group I daily topical); 213.25 mm in the data set on rats ZUCKER fa/fa (Week 2, group I daily topical); 224.25 mm in the data set with rats ZUCKER fa/fa (Week 3, group I daily topical); 233.25 mm in the data set with rats ZUCKER fa/fa (Week 4, group I daily topical); 238.5 mm with rats ZUCKER fa/fa (Week 5, group I daily topical). This compound also yielded a Weight in the data set with rats ZUCKER fa/fa (Week 1, group I daily topical) of 280.25 g. Moreover, the Weights was found to be 318.25 g in the data set on rats ZUCKER fa/fa (Week 2, group I daily topical); 345.5 g in the data set on rats ZUCKER fa/fa (Week 3, group I daily topical); 367.25 g in the data set with rats ZUCKER fa/fa (Week 4, group I daily topical); 386.25 g in the data set with rats ZUCKER fa/fa (Week 5, group I daily topical).
For the compound `CC(C)(C)C(=O)OCOC(=O)[C@@H](N)CCCNC(=N)N` [L-arginylpivalloyoxymethylester], in data set [1], the “% of diffusion after 5h” value worked out at 51%.
On to `C[Si](O)(O)OC(=O)C(N)CCCNC(=N)N` [Monomethylsilanediol of L-arginine], for which the Glycerol in data set [2] (15 mg/L) was 1 ± 0.5 nmoles/g of lipids; in data set [2] (30 mg/L), 2.40 ± 0.35 nmoles/g of lipids; in data set [2] (45 mg/L), 2.5 ± 0.35 nmoles/g of lipids. Also, the “% of diffusion after 5h” value in data set [3] is on record as 42%.
